Source: ChEMBL document CHEMBL1150806, “A new macrocyclic trichothecene, 12,13-deoxyroridin E, produced by the marine-derived fungus Myrothecium roridum collected in Palau” (J Nat Prod, 2001)
In brackets after ≈: the same amount, converted by molar mass.

Legend:
[1] = test system: HL-60; assay: Cytotoxicity against human HL60 cells after 72 hrs by WST8 assay; type: functional, cell-based
[2] = test system: L1210; assay: Cytotoxicity against mouse L1210 cells after 72 hrs by WST8 assay; type: functional, cell-based

Compound	IC50 ([1]; Homo sapiens, HL-60, 72 h, read-out: IC50)	IC50 ([2]; Mus musculus, L1210, 72 h, read-out: IC50)	IC50 ([1]; hl-60)	IC50 ([2]; l1210)
C=C1[C@H]2C[C@H]3OC(=O)/C=C\C=C\[C@H]([C@@H](C)O)OCC/C(C)=C/C(=O)OC[C@@]4(CCC(C)=C[C@H]4O2)[C@]13C	25 ng/mL (≈ 50.1 nM)	1.5 ng/mL (≈ 3.01 nM)	–	–
CC1=C[C@H]2O[C@@H]3C[C@H]4OC(=O)/C=C\C=C\[C@H]([C@@H](C)O)OCC/C(C)=C/C(=O)OC[C@@]2(CC1)[C@]4(C)[C@]31CO1 [RORIDIN E]	–	–	0.3 ng/mL (≈ 0.583 nM)	0.2 ng/mL (≈ 0.389 nM)
CC1=C[C@H]2O[C@@H]3C[C@H]4OC(=O)/C=C\C=C\C(=O)OCC[C@@H](C)[C@H](O)C(=O)OC[C@@]2(CC1)[C@]4(C)[C@]31CO1 [VERRUCARIN A]	–	–	0.2 ng/mL (≈ 0.398 nM)	0.35 ng/mL (≈ 0.696 nM)
CC1=C[C@H]2O[C@@H]3C[C@H]4OC(=O)/C=C\C=C\C(=O)OCC/C(C)=C/C(=O)OC[C@@]2(CC1)[C@]4(C)[C@]31CO1 [VERRUCARIN J]	–	–	2.5 ng/mL (≈ 5.16 nM)	2.5 ng/mL (≈ 5.16 nM)
